# Laboratory results published in PubChem BioAssay AID651797 (The Scripps Research Institute Molecular Screening Center, 2012).
# Calls of active or inactive are those of the source. No rule for the calls is given here.
# Molecular target: Nuclear receptor coactivator 3 (Homo sapiens) (UniProt Q9Y6Q9)
# Assay: NCOA3-driven reporter transcription inhibition – cell-based, luminescence reporter, selectivity assay for SRC1 inhibitor project, late-stage follow-up (AID 651797)
# Conditions: human cells, SRC3 luminescence reporter, dose response
# Chain of Nuclear receptor coactivator 3 (Homo sapiens) (Q9Y6Q9 whole entry, looked up): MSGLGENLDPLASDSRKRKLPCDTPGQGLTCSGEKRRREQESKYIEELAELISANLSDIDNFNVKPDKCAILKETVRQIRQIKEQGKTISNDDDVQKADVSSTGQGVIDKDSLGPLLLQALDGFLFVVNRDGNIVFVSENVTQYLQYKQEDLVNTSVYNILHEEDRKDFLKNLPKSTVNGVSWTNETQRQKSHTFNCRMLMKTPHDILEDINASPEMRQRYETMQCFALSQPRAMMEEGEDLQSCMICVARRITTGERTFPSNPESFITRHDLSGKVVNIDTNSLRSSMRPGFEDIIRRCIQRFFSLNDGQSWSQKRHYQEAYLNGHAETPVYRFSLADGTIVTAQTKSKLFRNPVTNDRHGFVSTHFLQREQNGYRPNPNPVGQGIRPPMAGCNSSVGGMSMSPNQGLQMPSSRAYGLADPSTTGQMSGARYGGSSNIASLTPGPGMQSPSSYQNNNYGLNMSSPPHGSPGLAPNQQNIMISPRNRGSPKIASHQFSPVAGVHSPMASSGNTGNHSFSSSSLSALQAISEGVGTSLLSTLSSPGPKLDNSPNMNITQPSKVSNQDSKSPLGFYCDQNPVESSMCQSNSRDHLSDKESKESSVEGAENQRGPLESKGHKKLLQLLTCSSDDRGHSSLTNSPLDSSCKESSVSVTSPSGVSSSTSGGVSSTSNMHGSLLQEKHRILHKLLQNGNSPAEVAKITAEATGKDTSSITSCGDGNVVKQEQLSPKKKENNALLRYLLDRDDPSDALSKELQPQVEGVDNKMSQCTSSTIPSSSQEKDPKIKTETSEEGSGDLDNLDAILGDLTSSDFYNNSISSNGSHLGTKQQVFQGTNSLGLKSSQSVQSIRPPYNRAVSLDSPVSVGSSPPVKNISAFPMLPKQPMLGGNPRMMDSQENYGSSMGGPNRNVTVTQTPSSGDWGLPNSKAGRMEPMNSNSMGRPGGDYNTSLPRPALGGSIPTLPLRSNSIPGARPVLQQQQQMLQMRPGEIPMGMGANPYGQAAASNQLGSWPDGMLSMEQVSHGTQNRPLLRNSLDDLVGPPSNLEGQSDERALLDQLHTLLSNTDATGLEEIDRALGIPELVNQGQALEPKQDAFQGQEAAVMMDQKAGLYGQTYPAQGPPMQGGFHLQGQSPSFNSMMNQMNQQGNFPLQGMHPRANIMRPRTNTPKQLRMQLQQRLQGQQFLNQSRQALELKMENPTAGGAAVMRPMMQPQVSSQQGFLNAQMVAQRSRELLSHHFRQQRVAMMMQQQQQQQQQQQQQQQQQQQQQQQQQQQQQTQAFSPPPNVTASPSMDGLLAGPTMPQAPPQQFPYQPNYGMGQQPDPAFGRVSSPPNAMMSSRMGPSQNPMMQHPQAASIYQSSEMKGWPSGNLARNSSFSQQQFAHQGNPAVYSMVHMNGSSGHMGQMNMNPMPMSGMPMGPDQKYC
row,SMILES,IC50
1,COc1ccc(Nc2ncnc3ccc(Br)cc23)c(OC)c1,inactive
2,COc1cc([C@@H]2c3cc4c(cc3C(OC3OC5COC(C)OC5C(O)C3O)C3COC(=O)[C@@H]32)OCO4)cc(OC)c1O (stereo partly drawn),0.69 µM
3,COc1ccc(NC(=O)CN(C)C(=O)C2(c3ccccc3)CCCC2)cc1,8.22 µM
